Tests used:
Format in all cases: biochemical
Conditions in all cases: 1 μM inhibitor concentration
JNK1 = JNK1 (Homo sapiens (Human), UniProt P45983); experiment: JNK1 kinase selectivity assay
Experimental: JNK1a1/SAPK1c (5-20 mU diluted in 50 mM Tris pH 7.5, 0.1 mM EGTA, 1 mg/ml BSA, 0.1% b-mercaptoethanol) is assayed against ATF2 (activating transcription factor in a final volume of 25.5 μl in 50 mM Tris pH 7.5, 0.1 mM EGTA, 0.1% b-Mercaptoethanol, ATF2 (3 μM), 10 mM magnesium acetate and 0.02 mM [33P-g-ATP] (500-1000 cpm/pmole) and incubated for 30 min at room temperature. Assays are stopped by addition of 5 μl of 0.5 M (3%) orthophosphoric acid and then harvested onto P81 Unifilter plates with a wash buffer of 50 mM orthophosphoric acid.

MNK2 = MNK2 (Homo sapiens (Human), UniProt Q9HBH9); experiment: MNK2 kinase selectivity assay
Experimental: (§1) 5-20 mU of MNK2 (diluted in 50 mM Tris (pH 7.5), 0.1 mM EGTA, 1 mg/ml BSA, 0.1%, b-Mercaptoethanol) is assayed against substrate peptide (eIF4E) in a final volume of 25.5 μl containing 50 mM Tris (pH 7.5), 0.1 mM EGTA, 0.1%, b-Mercaptoethanol, 0.5 mg/ml substrate peptide, 10 mM magnesium acetate and 0.05 mM [33P-g-ATP](500-1000 cpm/pmole) and incubated for 30 mins at room temperature. Assays are stopped by addition of 5 μl of 0.5M (3%) orthophosphoric acid. Assays are harvested onto P81 Unifilter plates using a wash buffer of 50 mM orthophosphoric acid.

CHK1 = CHK1 (Homo sapiens (Human), UniProt O14757); experiment: CHK1 kinase selectivity assay
Chain of CHK1 (O14757 whole entry, species assumed): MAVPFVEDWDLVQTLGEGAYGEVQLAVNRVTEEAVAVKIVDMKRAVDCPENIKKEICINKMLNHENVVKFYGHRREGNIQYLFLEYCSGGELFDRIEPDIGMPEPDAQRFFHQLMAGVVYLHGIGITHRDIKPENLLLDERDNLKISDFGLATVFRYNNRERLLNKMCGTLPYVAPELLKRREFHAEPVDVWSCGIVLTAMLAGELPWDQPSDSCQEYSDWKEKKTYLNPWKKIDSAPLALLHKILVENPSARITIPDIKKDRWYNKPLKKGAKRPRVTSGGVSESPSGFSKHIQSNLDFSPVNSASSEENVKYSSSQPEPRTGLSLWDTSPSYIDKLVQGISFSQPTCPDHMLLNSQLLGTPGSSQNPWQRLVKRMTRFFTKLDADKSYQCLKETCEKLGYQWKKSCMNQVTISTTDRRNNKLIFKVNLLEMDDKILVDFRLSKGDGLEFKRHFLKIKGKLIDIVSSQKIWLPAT
Experimental: CHK1 (5-20 mU diluted in 20 mM MOPS pH 7.5, 1 mM EDTA, 0.1% b-mercaptoethanol, 0.01% Brij-35, 5% glycerol, 1 mg/ml BSA) is assayed against CHKtide substrate peptide ([…]) in a final volume of 25.5 μl containing 8 mM MOPS pH 7.0, 0.2 mM EDTA, 200 μM CHKtide, 10 mM magnesium acetate and 0.02 mM [33P-g-ATP](50-1000 cpm/pmole) and incubated for 30 min at room temperature Assays are stopped by addition of 5 μl of 0.5 M (3%) orthophosphoric acid and then harvested onto P81 Unifilter plates with a wash buffer of 50 mM orthophosphoric acid.

MARK3 = MARK3 (Homo sapiens (Human), UniProt P27448); experiment: MARK3 kinase selectivity assay
Chain of MARK3 (P27448 whole entry, species assumed): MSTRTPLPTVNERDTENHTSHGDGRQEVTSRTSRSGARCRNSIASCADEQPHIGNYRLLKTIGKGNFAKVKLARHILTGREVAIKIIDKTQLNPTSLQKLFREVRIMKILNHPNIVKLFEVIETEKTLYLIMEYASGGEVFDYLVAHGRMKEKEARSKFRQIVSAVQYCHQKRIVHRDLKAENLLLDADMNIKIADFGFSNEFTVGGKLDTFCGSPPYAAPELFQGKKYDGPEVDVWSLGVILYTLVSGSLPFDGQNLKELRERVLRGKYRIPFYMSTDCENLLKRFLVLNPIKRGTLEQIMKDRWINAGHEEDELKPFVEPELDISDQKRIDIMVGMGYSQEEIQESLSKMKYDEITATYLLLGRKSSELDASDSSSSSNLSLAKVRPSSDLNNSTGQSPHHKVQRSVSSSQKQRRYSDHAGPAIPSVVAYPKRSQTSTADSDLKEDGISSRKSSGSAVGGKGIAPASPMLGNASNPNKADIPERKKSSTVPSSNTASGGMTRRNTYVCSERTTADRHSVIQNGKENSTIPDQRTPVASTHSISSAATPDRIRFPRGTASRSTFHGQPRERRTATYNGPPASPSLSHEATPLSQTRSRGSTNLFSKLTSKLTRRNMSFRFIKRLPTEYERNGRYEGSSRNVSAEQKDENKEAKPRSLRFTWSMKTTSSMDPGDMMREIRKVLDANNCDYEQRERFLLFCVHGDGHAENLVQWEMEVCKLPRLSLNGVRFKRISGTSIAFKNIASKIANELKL
Experimental: MARK3 (5-20 mU diluted in 50 mM Tris pH 7.5, 0.1 mM EGTA, 0.1% b-mercaptoethanol, 1 mg/ml BSA) is assayed against CHKtide substrate ([…]) in a final volume of 25.5 μl containing 50 mM Tris pH 7.5, 0.05% b-mercaptoethanol, 300 μM substrate peptide, 10 mM magnesium acetate and 0.005 mM [33P-g-ATP](50-1000 cpm/pmole) and incubated for 30 min at room temperature. Assays are stopped by addition of 5 μl of 0.5 M (3%) orthophosphoric acid and then harvested onto P81 Unifilter plates with a wash buffer of 50 mM orthophosphoric acid.

DYRK1A = DYRK1A (Homo sapiens (Human), UniProt Q13627); experiment: DYRK1A kinase selectivity assay
Experimental: DYRK 1A (5-20 mU of diluted in 50 mM Tris pH7.5, 0.1 mM EGTA) is assayed against Woodtide ([…]) in a final volume of 25.5 μl containing 50 mM Tris pH 7.5, 0.1 mM EGTA, 350 μM substrate peptide, 10 mM Magnesium acetate and 0.05 mM [33P-g-ATP](50-1000 cpm/pmole) and incubated for 30 min at room temperature. Assays are stopped by addition of 5 μl of 0.5 M (3%) orthophosphoric acid and then harvested onto P81 Unifilter plates with a wash buffer of 50 mM orthophosphoric acid.

IKKb = IKKb (Homo sapiens (Human), UniProt O14920); experiment: IKKb kinase selectivity assay
Chain of IKKb (O14920 whole entry, species assumed): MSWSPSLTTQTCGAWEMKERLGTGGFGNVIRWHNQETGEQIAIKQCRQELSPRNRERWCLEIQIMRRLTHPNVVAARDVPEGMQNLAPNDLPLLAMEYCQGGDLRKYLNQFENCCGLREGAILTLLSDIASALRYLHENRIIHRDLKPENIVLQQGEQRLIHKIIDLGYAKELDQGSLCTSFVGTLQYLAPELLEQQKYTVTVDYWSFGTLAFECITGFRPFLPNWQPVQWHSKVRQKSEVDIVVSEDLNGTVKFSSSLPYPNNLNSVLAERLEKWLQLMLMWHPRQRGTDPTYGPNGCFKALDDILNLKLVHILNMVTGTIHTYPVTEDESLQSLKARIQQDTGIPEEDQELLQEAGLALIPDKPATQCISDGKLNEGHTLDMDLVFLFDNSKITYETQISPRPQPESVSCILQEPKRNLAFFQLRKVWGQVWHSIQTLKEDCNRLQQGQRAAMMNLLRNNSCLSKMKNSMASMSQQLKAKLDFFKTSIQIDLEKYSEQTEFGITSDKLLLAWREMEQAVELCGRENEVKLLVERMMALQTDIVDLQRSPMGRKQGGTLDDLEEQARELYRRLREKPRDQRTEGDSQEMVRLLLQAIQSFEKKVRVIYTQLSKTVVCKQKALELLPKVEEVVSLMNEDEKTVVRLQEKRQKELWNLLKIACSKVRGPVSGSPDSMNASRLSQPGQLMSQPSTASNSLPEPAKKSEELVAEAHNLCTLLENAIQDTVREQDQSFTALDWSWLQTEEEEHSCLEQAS
Experimental: as §1, with “IKKb” for “MNK2”, “([…])” for “(eIF4E)”, “[…]” for “25.5”, “300 μM” for “0.5 mg/ml”, “0.005” for “0.05”

MLK1 = MLK1 (Homo sapiens (Human), UniProt P80192); experiment: MLK1 kinase selectivity assay
Chain of MLK1 (P80192 whole entry, species assumed): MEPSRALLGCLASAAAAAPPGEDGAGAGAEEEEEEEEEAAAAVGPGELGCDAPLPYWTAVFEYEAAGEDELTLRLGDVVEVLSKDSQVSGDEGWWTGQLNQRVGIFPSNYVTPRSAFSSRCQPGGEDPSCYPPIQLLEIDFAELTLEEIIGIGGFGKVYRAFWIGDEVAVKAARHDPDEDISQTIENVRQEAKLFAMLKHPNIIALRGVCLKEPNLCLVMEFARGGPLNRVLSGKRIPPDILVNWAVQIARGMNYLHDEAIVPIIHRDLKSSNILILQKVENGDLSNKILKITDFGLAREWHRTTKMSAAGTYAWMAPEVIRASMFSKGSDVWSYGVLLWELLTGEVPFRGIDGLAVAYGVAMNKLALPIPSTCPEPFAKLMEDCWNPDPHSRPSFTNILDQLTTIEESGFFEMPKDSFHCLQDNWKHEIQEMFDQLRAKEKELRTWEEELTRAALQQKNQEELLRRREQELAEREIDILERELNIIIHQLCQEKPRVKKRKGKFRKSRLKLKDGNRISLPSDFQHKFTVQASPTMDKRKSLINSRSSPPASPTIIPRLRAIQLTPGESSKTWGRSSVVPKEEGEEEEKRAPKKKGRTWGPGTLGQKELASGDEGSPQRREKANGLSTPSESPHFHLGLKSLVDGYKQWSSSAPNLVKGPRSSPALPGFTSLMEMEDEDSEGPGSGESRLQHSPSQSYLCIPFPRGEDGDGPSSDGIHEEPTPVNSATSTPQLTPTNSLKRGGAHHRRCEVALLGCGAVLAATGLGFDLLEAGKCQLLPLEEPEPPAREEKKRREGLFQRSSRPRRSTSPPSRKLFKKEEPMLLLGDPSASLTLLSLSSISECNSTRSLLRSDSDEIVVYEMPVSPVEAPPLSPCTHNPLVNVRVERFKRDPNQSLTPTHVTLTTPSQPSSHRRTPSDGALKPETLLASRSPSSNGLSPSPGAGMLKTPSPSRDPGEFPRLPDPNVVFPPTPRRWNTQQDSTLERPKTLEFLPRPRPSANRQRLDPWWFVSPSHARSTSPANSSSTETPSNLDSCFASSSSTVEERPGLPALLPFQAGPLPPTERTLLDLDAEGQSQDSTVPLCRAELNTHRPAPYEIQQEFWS
Experimental: (§2) MLK1 (5-20 mU diluted in 50 mM Tris pH 7.5, 0.1 mM EGTA, 0.1% 0-mercaptoethanol, 1 mg/ml BSA) is assayed against MBP in a final volume of 25.5 μl containing 50 mM Tris pH 7.5, 0.1 mM EGTA, 0.33 mg/ml MBP, 10 mM magnesium acetate and 0.02 mM [33P-γ-ATP] (50-1000 cpm/pmole) and incubated for 30 min at room temperature. Assays are stopped by addition of 5 μl of 0.5 M (3%) orthophosphoric acid and then harvested onto P81 Unifilter plates with a wash buffer of 50 mM orthophosphoric acid.

IRAK4 = IRAK4 (Homo sapiens (Human), UniProt Q9NWZ3); experiment: IRAK4 kinase selectivity assay
Chain of IRAK4 (Q9NWZ3 whole entry, species assumed): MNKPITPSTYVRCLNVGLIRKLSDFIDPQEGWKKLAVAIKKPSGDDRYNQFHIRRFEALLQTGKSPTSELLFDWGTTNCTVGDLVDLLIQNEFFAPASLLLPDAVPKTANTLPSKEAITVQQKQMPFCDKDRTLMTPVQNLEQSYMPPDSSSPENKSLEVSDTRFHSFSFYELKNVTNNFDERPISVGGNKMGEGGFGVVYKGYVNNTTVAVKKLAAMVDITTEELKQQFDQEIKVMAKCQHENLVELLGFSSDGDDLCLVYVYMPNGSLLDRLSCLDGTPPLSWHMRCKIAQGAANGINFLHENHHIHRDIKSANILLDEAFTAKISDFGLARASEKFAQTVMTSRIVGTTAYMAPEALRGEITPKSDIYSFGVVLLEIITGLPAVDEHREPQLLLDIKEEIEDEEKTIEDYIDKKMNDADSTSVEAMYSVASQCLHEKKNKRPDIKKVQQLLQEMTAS
Experimental: as §2, with “IRAK4” for “MLK1”

ULK1 = ULK1 (Homo sapiens (Human), UniProt O75385); experiment: ULK1 kinase selectivity assay
Chain of ULK1 (O75385 whole entry, species assumed): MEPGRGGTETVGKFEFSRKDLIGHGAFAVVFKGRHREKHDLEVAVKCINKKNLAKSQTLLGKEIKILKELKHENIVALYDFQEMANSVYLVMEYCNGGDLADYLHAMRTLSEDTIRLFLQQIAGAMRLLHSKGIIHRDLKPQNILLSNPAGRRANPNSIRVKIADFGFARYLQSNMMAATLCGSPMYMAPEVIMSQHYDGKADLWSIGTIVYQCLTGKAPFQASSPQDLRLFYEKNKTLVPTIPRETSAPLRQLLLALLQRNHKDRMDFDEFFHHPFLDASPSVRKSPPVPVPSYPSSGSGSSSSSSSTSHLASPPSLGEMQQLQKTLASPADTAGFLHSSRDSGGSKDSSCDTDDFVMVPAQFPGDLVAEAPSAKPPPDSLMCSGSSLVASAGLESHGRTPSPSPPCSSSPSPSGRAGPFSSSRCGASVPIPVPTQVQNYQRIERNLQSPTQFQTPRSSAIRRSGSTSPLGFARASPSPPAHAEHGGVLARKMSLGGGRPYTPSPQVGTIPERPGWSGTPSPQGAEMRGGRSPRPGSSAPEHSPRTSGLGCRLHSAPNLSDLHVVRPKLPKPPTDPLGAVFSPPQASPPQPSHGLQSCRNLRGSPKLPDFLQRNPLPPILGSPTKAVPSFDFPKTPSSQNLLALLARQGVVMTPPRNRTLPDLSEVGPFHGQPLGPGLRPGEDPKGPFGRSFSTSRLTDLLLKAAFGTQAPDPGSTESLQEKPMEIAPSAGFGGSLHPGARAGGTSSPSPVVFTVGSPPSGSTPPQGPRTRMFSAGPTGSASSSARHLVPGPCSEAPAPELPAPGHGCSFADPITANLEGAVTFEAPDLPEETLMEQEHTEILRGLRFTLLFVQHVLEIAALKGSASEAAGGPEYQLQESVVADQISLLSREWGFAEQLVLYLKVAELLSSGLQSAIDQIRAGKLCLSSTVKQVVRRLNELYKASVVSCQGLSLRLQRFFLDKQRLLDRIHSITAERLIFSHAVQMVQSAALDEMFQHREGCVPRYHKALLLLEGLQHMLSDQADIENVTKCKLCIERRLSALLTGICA

Chain of JNK1 (P45983 other isoform, or with tags, fused parts or gaps, species assumed): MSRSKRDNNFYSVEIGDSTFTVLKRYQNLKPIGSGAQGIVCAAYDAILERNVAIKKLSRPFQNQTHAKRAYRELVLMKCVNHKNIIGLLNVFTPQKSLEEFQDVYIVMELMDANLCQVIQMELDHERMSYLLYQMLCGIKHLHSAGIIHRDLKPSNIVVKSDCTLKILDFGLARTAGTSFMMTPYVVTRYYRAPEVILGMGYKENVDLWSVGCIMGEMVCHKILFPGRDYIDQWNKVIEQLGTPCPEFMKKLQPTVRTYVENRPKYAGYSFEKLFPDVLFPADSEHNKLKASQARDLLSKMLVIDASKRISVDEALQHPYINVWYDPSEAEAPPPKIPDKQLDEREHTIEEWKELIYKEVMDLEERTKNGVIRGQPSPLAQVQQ

Row | SMILES | percentage inhibition of JNK1 (JNK1) [percentage] | percentage inhibition of MNK2 (MNK2) [percentage] | percentage inhibition of CHK1 (CHK1) [percentage] | percentage inhibition of MARK3 (MARK3) [percentage] | percentage inhibition of DYRK1A (DYRK1A) [percentage] | percentage inhibition of IKKb (IKKb) [percentage] | percentage inhibition of MLK1 (MLK1) [percentage] | percentage inhibition of IRAK4 (IRAK4) [percentage] | percentage inhibition of ULK1 (ULK1) [percentage]
1 | c1cc2[nH]nc3c2c(n1)N(C1CCOCC1)CCC3 [Example 29, 6-(tetrahydro-2H-pyran-4-yl)-6,7,8,9-tetrahydro-2H-1,2,5,6-tetraazabenzo[cd]azulene] | 0 | 0 | 0 | 13 | 4 | 0 | 0 | 15 | 5
2 | c1cc2[nH]nc3c2c(n1)N(C1CCC1)CCC3 [Example 22, 6-cyclobutyl-6,7,8,9-tetrahydro-2H-1,2,5,6-tetraazabenzo[cd]azulene] | 0 | 0 | 2 | 1 | 16 | 2 | 0 | 13 | 14
3 | CC(C)n1ncc2c1CN(C1CCN(C)CC1)c1nccc3[nH]nc-2c13 [Example 68] | 48 | 18 | 28 | 43 | 0 | 4 | 12 | 14 | 30
4 | c1cc2[nH]nc3c2c(n1)N(C1CCCC1)CCC3 [Example 23, 6-cyclopentyl-6,7,8,9-tetrahydro-2H-1,2,5,6-tetraazabenzo[cd]azulene] | 0 | 0 | 0 | 0 | 0 | 0 | 0 | 0 | 0
5 | CN1CCC(N2Cc3ccccc3-c3n[nH]c4ccnc2c34)CC1 [Example 55] | 49 | 40 | 42 | 47 | 8 | 6 | 24 | 9 | 20

— US10918645B2 (LIFEARC, priority 2016, dated 2021)
